Values after ≈ are worked out from the molar mass of the structure shown.

What all share (type): cell-based
The test system of experiment [1] is H. pylori strain NCTC 11637. In words: Disc diffusion method against H. pylori. The following applies: Helicobacter pylori, NCTC11637, Disk. As to the method: (§1) Each sample was extracted using DMSO at 10 w/v % to make stock solution, further from which ten-fold serial dilution was made by DMSO, to prepare the test solution. H. pylori. strain NCTC 11637 and strain NCTC 11916 were cultured on blood agar which added 5% defibrinated horse blood to Brucella Agar (BBL) at 37° C. for 3 days, under microaerophile surroundings (N2 80%, CO2 15%, O2 5%). The strains were suspended in Brucella broth added 0.5 mg/ml of BSA fraction V (Sigma A-4503) to a concentration of 10^8 cfu/ml, to prepare inoculum organism liquid, and 0.1 ml of the liquid was smeared on BSA agar added the said BSA, after that anti-bacterial activity against H. pylori was determined by Disc method, as described below. Each test solution of 20 μl was made to absorb in a sensitivity disk (8 mm in diameter, Advantech, thin-model), placed on agar smeared with strains, cultured under microaerophile surroundings at 37° C. for 3 to 5 days. After that, growth-inhibitory zone around the disk showing more than 1 mm was regarded as positive.

Experiment [2] concerns H. pylori strain NCTC 11916. In words: Disc diffusion method against H. pylori. The following applies: Helicobacter pylori, NCTC11916, Disk. As to the method: as §1
Experiment [3] relates to H. pylori strain NCTC 11637. In words: Agar plate dilution method, control antibiotic. The following applies: Helicobacter pylori, NCTC11637, agar plate dilution method.
Experiment [4] concerns H. pylori strain NCTC 11916. In words: Agar plate dilution method, control antibiotic. The following applies: Helicobacter pylori, NCTC11916, agar plate dilution method.

Turning to `CC[C@H]1OC(=O)[C@H](C)[C@@H](O[C@H]2C[C@@](C)(OC)[C@@H](O)[C@H](C)O2)[C@H](C)[C@@H](O[C@@H]2O[C@H](C)C[C@H](N(C)C)[C@H]2O)[C@](C)(O)C[C@@H](C)C(=O)[C@H](C)[C@@H](O)[C@]1(C)O` [Erythromycin], the MIC in experiment [1] (BSA agar) was determined as 3.1 µg/mL (≈ 4.22 µM); in experiment [1] (blood agar), 6.3 µg/mL (≈ 8.58 µM); in experiment [2] (BSA agar), 1.6 µg/mL (≈ 2.18 µM); in experiment [2] (blood agar) it was 6.3 µg/mL (≈ 8.58 µM); in experiment [3] (BSA agar) it was 0.03 µg/mL (≈ 0.0409 µM); in experiment [3] (blood agar), 0.05 µg/mL (≈ 0.0681 µM). Also, the MIC in experiment [4] (BSA agar) turned out to be 0.03 µg/mL (≈ 0.0409 µM); in experiment [4] (blood agar), 0.05 µg/mL (≈ 0.0681 µM).

(Values after US20040105869A1, “Methods for cultivation of Kabanoanatake secreting and containing active ingredients for prophylactic and therapeutic agents against microbe-related syndromes including HIV” (priority 2002, published 2004).)
